Test [1] deals with NAD-dependent protein deacylase sirtuin-5, mitochondrial (Homo sapiens, UniProt Q9NXA8). As to the kind of experiment: sirtuin-5 deacylation blockers, concentration series – biochemical, fluorescence imaging, cherry-pick, set 5, dose response (AID 720591).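 Also: desuccinylation of succinyl peptide AMC substrate read as fluorescence after trypsin release; potency of inhibitors that lower fluorescence and may act on trypsin instead.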
Test [2] deals with Escherichia coli. As to the kind of experiment: microbe, parasite or virus in culture.
Test [3] relates to Escherichia coli. As to the kind of experiment: microbe, parasite or virus in culture. The source holds these as a separate data set.
The target of another test is Paired box protein Pax-8 (Homo sapiens, UniProt Q06710). As to the kind of experiment: PAX8 transcriptional activity inhibition in RMG-I – RMG-I cells, luciferase, cherry-pick, dose response (AID 687027).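 Also: luciferase reporter driven by Pax8 target thyroperoxidase promoter measured by SteadyGlo luminescence.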 It counts as functional, cell-based.
Test [4] is described as follows: OVCAR8 cell viability loss – plate reader, dry powder samples, PAX8 project, dose response (AID 743197). As to conditions: OVCAR-8. Format: functional, cell-based.
Test [5] in a line: IGROV1 cell killing – plate reader, dry powder samples, PAX8 inhibitor project, dose response (AID 743043). The conditions noted are these: IGROV-1. Format: functional, cell-based.
The nature of test [6]: potency of ADAM10 substrate cleavage blockers – biochemical, QFRET, dose response (AID 743254).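 Also: ADAM10 enzyme with the DM2 quenched FRET peptide as substrate; EDANS fluorescence gain as the protease cuts the substrate; inhibitor potency against ADAM10 proteolytic activity.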
In test [7] the target is Disintegrin and metalloproteinase domain-containing protein 17 (Homo sapiens, UniProt P78536). The experiment in a line: inhibition of ADAM17 substrate cleavage – biochemical, quenched FRET substrate, counter-screen for ADAM10 exosite inhibitor project, dose response (AID 743253).
The target in a further test is fMet-Leu-Phe receptor (Homo sapiens, UniProt P21462). The experiment in a line: formyl peptide receptor binders – dose response (AID 519). It counts as functional.
Test [8] can be described thus: inhibition of Env-driven cell fusion – HIV entry, plate reader, dry powder, dose response (AID 687023). It counts as functional, cell-based.
Test [9] can be described thus: OVCAR-3 cell viability loss – plate reader, dry powder samples, PAX8 inhibitor project, dose response (AID 743044). Format: functional, cell-based.
A short description of test [10]: viability loss in HEK293 cells – cell-based, plate reader, cherry-picked samples, cytotoxicity control, dose response (AID 743446). It counts as functional.
Test [11] can be described thus: reduced cellular PGC1a acetyl-lysine signal – cell-based, cherry-picked samples, dose response (AID 720514).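 Also: potency may reflect raised or lowered acetylation signal.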 It counts as functional.
Test [12] in a line: Luminescence Cell-Based Dose Retest to Confirm Inhibitors of Cancer Stem Cells. [Related pubchem assays (depositor defined):AID2717, AID2721]. Format: functional. As to conditions: Homo sapiens.
The nature of test [13]: blockers of bursicon-stimulated LGR2 cAMP reporter – cell-based, HEK293, CRE-luciferase reporter, cherry pick, set 2, dose response (AID 743343).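 Also: transfected cells were stimulated with diluted bursicon conditioned medium after compound addition.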 Format: functional.
Test [14] is described as follows: blockade of melanocortin 4 receptor signaling – cell-based, plate reader, cherry pick, counter-screen for LGR2 antagonist project, dose response (AID 743444).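 Also: transfected HEK 293 cells stimulated with alpha-MSH peptide; potency of inhibitors of the alpha-MSH evoked signal.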 Format: functional. Background: A counterscreen serves to expose hits that act by an unwanted route or on another target.
Test [15] in a line: A549 cell cytotoxicity, dose response, cytotoxicity control, plate reader, cherry-pick, antagonist series (AID 743412). It counts as functional, cell-based.
Test [16] is described as follows: Fluorescence-based cell-based high throughput dose response assay for inhibitors of the interaction of nucleotide-binding oligomerization domain containing 2 (NOD2) and the receptor-interacting serine-threonine kinase 2 (RIPK2). Format: functional. The conditions noted are these: Homo sapiens.
A short description of test [17]: toxicity toward HepG2 liver cells – cell-based, plate reader, cherry-pick, antagonist series, cytotoxicity control, dose response (AID 743416). It counts as functional.
Test [18] is described as follows: cells. The conditions noted are these: A549.
Test [19] can be described thus: cells. It counts as functional, cell-based.
The target of test [20] is T1, Trace amine-associated receptor 1 (Homo sapiens, UniProt Q96RJ0).
T1 sequence (Q96RJ0 whole entry): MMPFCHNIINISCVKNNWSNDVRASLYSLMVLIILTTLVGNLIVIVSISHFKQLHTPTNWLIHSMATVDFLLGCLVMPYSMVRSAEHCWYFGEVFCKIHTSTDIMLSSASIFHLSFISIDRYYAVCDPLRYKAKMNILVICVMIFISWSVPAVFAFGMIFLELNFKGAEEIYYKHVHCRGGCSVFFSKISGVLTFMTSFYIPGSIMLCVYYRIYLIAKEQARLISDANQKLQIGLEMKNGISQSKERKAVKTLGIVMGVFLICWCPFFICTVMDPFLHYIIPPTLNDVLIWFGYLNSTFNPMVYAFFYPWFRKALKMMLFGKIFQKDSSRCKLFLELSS
The experiment in a line: Counterscreen for agonists of the human trace amine associated receptor 1 (hTAAR1): Fluorescence-based cell-based high throughput dose response assay to identify hTAAR1 agonist that also desensitize TAAR1 receptor response. It counts as functional.

Test [21] addresses T1, Trace amine-associated receptor 1. The experiment in a line: Fluorescence-based cell-based high throughput dose response assay to identify agonists of the human trace amine associated receptor 1 (TAAR1). Format: functional.
Test [22] is described as follows: cells. It counts as functional, cell-based. The source holds these as a separate data set.
Test [23] in a line: cells. The conditions noted are these: HEK293.
The nature of test [24]: viability loss in HepG2 liver cells – cell-based, ATP luminescence, cherry-pick, set 6, cytotoxicity control, dose response (AID 1053125). It counts as functional.
Test [25] in a line: cells.
Test [26] concerns the target T2, Oxysterols receptor LXR-beta (Homo sapiens, UniProt P55055).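 Also: Cell-based luminescence dose-response assay of agonist activity at LXR, run as a confirmatory counterscreen to a daf-12 agonist screen; HEK293 cells with Gal4-LXR fusion and GAL4-driven luciferase reporter; agonist potency from rising luciferase signal of a Gal4-LXR reporter.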
T2 sequence (P55055 whole entry): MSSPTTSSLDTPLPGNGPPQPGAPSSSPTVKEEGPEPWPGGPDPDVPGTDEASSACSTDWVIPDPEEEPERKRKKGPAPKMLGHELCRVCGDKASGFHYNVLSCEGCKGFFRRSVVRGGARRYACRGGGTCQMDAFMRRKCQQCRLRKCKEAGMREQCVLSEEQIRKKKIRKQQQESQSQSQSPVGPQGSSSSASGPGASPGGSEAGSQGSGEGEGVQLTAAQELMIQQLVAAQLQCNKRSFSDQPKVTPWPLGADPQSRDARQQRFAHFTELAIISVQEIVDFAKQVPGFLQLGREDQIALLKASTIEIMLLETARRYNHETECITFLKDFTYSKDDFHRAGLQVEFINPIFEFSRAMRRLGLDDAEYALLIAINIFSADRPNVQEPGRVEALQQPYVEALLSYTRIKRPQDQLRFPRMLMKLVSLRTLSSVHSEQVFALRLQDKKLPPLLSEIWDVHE
Format: functional, cell-based.

The test system of a further test is HEK293. As to the kind of experiment: viability loss in HEK293T cells – cell-based, ATP luminescence, cherry-pick samples, cytotoxicity control, dose response (AID 687005).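 Also: cells exposed to compound for 48 hours.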 As to conditions: Homo sapiens. Format: functional.
The subject of a further test is HeLa. The experiment in a line: viability loss in HeLa cells – cell-based, ATP luminescence, cherry-pick samples, cytotoxicity control, dose response (AID 687004). It counts as functional. As to conditions: Homo sapiens.
The nature of test [27]: HEK293 Cytotoxicity Assay Measured in Cell-Based System Using Plate Reader - 7071-01_Inhibitor_Dose_CherryPick_Activity_Set2. It counts as functional.
The nature of test [28]: general cell-killing toxicity readout – plate reader, dry powder samples, cytotoxicity control for PAX8 inhibitor project, dose response (AID 743021). It counts as functional, cell-based.
The target of test [29] is Fructose-bisphosphate aldolase (Mycobacterium tuberculosis, UniProt P9WQA3). The experiment in a line: Fluorescence-based biochemical high throughput dose response assay for inhibitors of the fructose-bisphosphate aldolase (FBA) of M. tuberculosis. Format: functional.
A further test concerns the target Cytochrome P450 3A4 (Homo sapiens, UniProt P08684).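 Also: CYP3A4 tested as one member of a cytochrome P450 panel screen.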
The next test has as its target Cytochrome P450 2C9 (Homo sapiens, UniProt P11712).

Activity calls are given as the source filed them. Some results are limits rather than exact numbers.

One may read the AC50 as the midpoint of the concentration-response curve, whichever way the signal moves. For orientation: IC50 means the concentration that gives 50% inhibition. In general, Ki refers to the dissociation constant of the complex between target and ligand, obtained from inhibition or displacement. As a reminder, the EC50 is the concentration that produces a half-maximal response.

Paired box protein Pax-8, sequence (Q06710 whole entry): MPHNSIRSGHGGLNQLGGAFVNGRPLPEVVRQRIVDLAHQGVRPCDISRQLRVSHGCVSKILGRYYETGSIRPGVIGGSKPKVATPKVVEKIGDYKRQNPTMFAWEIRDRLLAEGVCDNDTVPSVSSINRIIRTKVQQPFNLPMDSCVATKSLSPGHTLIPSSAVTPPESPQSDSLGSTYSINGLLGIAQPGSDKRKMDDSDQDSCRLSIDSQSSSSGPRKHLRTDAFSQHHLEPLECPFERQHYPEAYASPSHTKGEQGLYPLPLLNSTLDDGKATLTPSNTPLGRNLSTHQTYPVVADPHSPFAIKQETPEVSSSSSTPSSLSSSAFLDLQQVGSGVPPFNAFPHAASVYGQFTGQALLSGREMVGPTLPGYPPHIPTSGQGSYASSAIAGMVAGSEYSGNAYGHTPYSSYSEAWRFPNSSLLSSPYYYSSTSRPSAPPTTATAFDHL
Disintegrin and metalloproteinase domain-containing protein 17, sequence (P78536 whole entry, the tested form may be a part): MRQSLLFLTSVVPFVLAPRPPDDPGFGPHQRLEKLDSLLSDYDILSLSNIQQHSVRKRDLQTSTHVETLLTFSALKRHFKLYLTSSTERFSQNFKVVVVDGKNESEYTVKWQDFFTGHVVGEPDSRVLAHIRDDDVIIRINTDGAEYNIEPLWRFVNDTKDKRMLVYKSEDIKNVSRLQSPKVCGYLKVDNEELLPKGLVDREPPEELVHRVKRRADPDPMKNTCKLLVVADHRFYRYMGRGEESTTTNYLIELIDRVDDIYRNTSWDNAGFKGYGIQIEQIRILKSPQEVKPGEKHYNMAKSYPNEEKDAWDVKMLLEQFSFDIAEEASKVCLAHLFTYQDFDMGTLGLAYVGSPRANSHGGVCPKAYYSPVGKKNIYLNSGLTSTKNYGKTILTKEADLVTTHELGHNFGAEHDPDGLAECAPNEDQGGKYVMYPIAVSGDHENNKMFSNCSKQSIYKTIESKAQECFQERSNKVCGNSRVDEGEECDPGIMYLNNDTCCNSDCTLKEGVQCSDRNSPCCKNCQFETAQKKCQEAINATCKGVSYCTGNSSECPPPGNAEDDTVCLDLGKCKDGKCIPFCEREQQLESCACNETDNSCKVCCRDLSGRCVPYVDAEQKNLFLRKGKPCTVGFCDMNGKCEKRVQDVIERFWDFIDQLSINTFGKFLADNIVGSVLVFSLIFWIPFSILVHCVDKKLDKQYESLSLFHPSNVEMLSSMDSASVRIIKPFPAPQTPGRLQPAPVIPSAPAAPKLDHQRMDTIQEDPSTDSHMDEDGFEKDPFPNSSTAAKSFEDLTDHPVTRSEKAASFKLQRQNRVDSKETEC
NAD-dependent protein deacylase sirtuin-5, mitochondrial, sequence (Q9NXA8 whole entry): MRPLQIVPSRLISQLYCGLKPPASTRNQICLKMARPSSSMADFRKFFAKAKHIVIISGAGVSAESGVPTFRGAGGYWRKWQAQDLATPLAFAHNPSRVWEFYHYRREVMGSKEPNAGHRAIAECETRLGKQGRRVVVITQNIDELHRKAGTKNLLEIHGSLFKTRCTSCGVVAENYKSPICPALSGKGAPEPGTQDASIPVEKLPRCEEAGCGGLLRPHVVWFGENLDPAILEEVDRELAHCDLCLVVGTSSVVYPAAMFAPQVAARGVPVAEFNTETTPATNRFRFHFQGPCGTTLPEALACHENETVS
fMet-Leu-Phe receptor, sequence (P21462 whole entry, the tested form may be a part): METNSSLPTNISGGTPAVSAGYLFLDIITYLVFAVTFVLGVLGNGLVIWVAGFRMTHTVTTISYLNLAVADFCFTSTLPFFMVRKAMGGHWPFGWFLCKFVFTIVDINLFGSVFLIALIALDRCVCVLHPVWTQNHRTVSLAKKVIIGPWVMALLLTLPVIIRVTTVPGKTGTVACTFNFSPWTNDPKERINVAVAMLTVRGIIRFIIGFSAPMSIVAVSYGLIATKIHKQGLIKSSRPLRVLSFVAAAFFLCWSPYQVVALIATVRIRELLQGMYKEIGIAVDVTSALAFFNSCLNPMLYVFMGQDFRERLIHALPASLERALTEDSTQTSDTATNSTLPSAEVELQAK
Cytochrome P450 3A4, sequence (P08684 whole entry): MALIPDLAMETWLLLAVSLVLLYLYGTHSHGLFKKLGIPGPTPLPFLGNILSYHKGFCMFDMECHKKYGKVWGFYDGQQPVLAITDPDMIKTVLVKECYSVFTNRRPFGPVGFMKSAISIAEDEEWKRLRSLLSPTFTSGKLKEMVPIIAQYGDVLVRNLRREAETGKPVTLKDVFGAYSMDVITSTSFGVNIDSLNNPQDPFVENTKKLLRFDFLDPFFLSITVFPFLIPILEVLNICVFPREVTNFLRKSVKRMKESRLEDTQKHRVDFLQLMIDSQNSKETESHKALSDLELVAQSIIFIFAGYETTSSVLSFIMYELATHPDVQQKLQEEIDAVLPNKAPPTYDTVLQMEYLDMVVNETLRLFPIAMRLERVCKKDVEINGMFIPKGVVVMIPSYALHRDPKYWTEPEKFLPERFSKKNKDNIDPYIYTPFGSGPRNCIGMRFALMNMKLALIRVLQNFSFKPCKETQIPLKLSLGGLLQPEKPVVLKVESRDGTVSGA
Fructose-bisphosphate aldolase, sequence (P9WQA3 whole entry): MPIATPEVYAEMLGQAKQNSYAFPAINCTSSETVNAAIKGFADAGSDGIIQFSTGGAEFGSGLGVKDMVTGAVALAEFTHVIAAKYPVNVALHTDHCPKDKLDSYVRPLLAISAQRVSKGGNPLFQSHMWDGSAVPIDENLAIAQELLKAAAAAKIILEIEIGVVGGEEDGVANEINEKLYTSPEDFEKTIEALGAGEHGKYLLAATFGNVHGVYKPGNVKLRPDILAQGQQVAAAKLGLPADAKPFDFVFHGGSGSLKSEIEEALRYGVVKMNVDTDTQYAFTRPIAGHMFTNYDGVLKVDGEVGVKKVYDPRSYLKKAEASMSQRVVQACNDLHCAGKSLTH
Cytochrome P450 2C9, sequence (P11712 whole entry): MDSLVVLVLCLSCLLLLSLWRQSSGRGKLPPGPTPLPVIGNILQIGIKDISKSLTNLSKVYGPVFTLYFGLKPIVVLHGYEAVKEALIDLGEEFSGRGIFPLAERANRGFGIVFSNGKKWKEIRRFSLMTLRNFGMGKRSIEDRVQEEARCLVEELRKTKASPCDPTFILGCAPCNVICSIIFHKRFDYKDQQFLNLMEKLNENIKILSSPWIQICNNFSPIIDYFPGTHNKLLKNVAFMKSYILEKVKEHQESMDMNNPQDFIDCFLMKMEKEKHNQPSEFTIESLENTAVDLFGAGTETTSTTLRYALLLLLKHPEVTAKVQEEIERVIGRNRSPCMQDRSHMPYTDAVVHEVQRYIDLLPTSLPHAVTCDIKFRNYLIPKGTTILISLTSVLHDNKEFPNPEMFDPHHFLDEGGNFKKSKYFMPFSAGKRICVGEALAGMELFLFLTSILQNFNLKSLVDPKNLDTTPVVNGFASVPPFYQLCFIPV

In the case of `Nc1ccccc1SCc1cn2ccccc2n1`, the AC50 was 20.6 µM (active) in [1], 7.26 µM (active) in the test on Escherichia coli [2] and 19.9 µM (active) with Escherichia coli [3].
On to `C[C@@H]1CCCCO[C@@H](CN(C)Cc2ccc(C(F)(F)F)cc2)[C@H](C)CN([C@@H](C)CO)C(=O)c2cc(NS(=O)(=O)c3ccc(F)cc3)ccc2O1`, for which the figures for the AC50 (at Paired box protein Pax-8; in test [4]; in test [5]) were 5.83 µM (active), > 70 µM (inactive) and 55.8 µM (active), respectively.
Regarding `COc1ccc(NC(=O)Cn2nnc(-c3ccccc3)c2COc2ccc3ccccc3c2)cn1`, the IC50 is > 7.72 µM (active) in [6] and > 69.5 µM (inactive) in test [7].
Turning to `CCOc1ccc(C2C(C(=O)c3ccco3)=C(O)C(=O)N2CCCn2ccnc2)cc1` (stereo not drawn), the Ki at fMet-Leu-Phe receptor is 9.9 µM (active).
Consider `Cc1noc(C)c1S(=O)(=O)Nc1cccc2c1O[C@@H](CN(C)Cc1ccc(C(F)(F)F)cc1)[C@@H](C)CN([C@@H](C)CO)C2=O`, for which the concentration at half-maximal activity (AC50) in [8] was 53.5 µM (active).
On to `C[C@H]1CCCCO[C@H](CN(C)Cc2ccc(Cl)c(Cl)c2)[C@@H](C)CN([C@@H](C)CO)C(=O)c2cc(NC(=O)Nc3ccc(C(F)(F)F)cc3)ccc2O1`, for which the AC50 on Paired box protein Pax-8 was 9.26 µM (active); in test [9], 23.4 µM (active); in test [4], 50.7 µM (active); in test [5], 59 µM (active).
Regarding `O=C(Cn1ncc(Cl)c(Cl)c1=O)NC(=O)NC1CCCCC1`, the AC50 is 7.89 µM (active) in test [10]; 2.85 µM (active) at Paired box protein Pax-8; 4.83 µM (active) in test [11]; 1.81 µM (active) in [12]; 25.8 µM (active) in test [13]; 26.2 µM (active) in test [14]. For the same compound, the AC50 is 7.17 µM (active) in test [15] and 7.9 µM (active) in test [17]. For the same compound, in test [16], the IC50 was 3.13 µM (active).
Consider `O=[N+]([O-])c1cccc(Nc2c3ccccc3nc3ccccc23)c1`, for which, in the test “cells [18]”, the concentration at half-maximal activity (AC50) is 46.4 µM (active).
For the compound `Cc1cccc(CCNCc2cc3ccc(C)cc3nc2O)c1`, the IC50 was > 29.9 µM (inactive) in “cells [19]” and 7.79 µM (active) in test [20]. Also, the EC50 in [21] was 3.44 µM (active); in the test “cells [22]” it was 24.9 µM (inactive).
With `COc1ccc(CNC(=O)c2sc(=O)n(Cc3ccc(C)cc3)c2C)cc1OC`, the AC50 (in the test “cells [23]”; in test [24]) was > 52 µM (inactive) in each case.
As to `COC(=O)[C@]12C[C@H](CC(=O)NCCc3ccccc3OC)C(=O)N(Cc3ccccc3)C1=C[C@H](C(C)(C)C)O[C@@H]2C`, the IC50 is > 29.9 µM (inactive) in the test “cells [19]” and 7.35 µM (active) in [20]. Also, the EC50 in test [21] is 2.45 µM (active); in the test “cells [22]”, > 29.9 µM (inactive).
Regarding `O=C(C1CCC(Cn2c(=S)[nH]c3ccccc3c2=O)CC1)N1CCN(c2ccccc2)CC1` (stereo not drawn), the IC50 in test [6] and in [7] was > 69.5 µM (inactive) in each case.
For the compound `COc1ccccc1N1CCN(C(C)C(=O)N2CC(C)OC(C)C2)CC1` (stereo not drawn), in test [1], the AC50 was > 30 µM (inactive).
In the case of `C[C@@H]1CCCCO[C@H](CN(C)Cc2ccc(Cl)c(Cl)c2)[C@@H](C)CN([C@@H](C)CO)C(=O)c2cc(NC(=O)Nc3ccc(C(F)(F)F)cc3)ccc2O1`, the results for the AC50 (at Paired box protein Pax-8; in test [9]; in test [4]) were 4.2 µM (active), 40 µM (active) and > 70 µM (inactive), respectively.
`NC(=O)c1c(NC(=O)c2ccccc2)sc2c1CCCC2`: the EC50 (in “cells [25]”; in test [26]) was > 67.6 µM (inactive) in each case.
As to `C[C@@H]1CN([C@H](C)CO)S(=O)(=O)c2ccc(-c3ccccc3)cc2O[C@H]1CN(C)C(=O)C1CCCCC1`, the AC50 in the test on HEK293 is 16.2 µM (active); with HeLa, > 52 µM (inactive); in test [27], 16.2 µM (active).
As to `CCCCn1nnnc1C(c1cc2ccccc2o1)N1CCN(c2ccncc2)CC1` (stereo not drawn), the AC50 in test [13] was 40.1 µM (active); in [15] it was 32.6 µM (active); in [17], > 52 µM (inactive).
`CC(C)CN1CCN(C(=O)COC(=O)c2ccc(S(C)(=O)=O)c([N+](=O)[O-])c2)CC1`: the AC50 at Paired box protein Pax-8 is 13 µM (active); in test [11] it was 10.6 µM (active); in test [28], 22.7 µM (active).
Take `O=C(c1ccccc1)c1ccc(OCC(O)CN2CCOCC2)cc1` (stereo not drawn): the IC50 in [29] is > 9.99 µM (inactive).
With `C[C@H]1CN([C@@H](C)CO)C(=O)Cc2cc(NC(=O)CCCCCC(=O)Nc3ccccc3N)ccc2O[C@H]1CN(C)Cc1ccc2c(c1)OCO2`, the AC50 with HEK293 is 22.8 µM (active); with HeLa, 51.7 µM (active); in [27], 22.8 µM (active).
In the case of `CCOc1cccc(C(=O)C2=C(O)C(=O)N(Cc3ccco3)C2c2ccncc2)c1` (stereo not drawn), the AC50 on Cytochrome P450 3A4 is 22.4 µM (inconclusive); on Cytochrome P450 2C9, 14.1 µM (inconclusive). At fMet-Leu-Phe receptor, the Ki is > 66.7 µM (inactive).

The values above are taken from ChEMBL document CHEMBL1201862, “PubChem BioAssay data set” (2004).
